Test results as given in patent publication US8981094B2, “Piperidine/piperazine derivatives” (Janssen Pharmaceutica N.V., priority 2007, dated 2015).

molecular target: T1, human DGAT1 (Homo sapiens, UniProt O75907); experiment: Inhibition of DGAT1 activity, FlashPlate assay with DGAT1 membrane preparations and substrate micelles; assay type: biochemical; details: pIC50 = -logIC50, IC50 values expressed in M
T1 construct: FLAG (N); made in house; host or cells: SF9 insect cells (pFastBac baculovirus); total cell membranes
T1 sequence (O75907 1-488): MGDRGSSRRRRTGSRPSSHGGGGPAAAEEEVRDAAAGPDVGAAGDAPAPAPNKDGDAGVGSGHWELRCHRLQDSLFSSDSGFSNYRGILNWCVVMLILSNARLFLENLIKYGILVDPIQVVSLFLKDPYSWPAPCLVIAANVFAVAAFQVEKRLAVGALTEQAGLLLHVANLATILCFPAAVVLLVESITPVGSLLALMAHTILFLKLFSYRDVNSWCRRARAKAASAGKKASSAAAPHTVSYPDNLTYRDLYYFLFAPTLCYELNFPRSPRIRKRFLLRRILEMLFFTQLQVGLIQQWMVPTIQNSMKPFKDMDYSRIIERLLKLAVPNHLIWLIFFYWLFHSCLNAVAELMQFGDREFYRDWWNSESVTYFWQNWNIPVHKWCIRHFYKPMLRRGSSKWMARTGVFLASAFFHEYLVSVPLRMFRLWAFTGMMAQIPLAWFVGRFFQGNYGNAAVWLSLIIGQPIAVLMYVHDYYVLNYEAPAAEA
Description: A) Measurement of Inhibition of DGAT1 Activity by the Present Compounds
The inhibiting activity of the present compounds on DGAT1 activity was screened in a single well procedure assay using DGAT1 comprising membrane preparations and DGAT1 substrate comprising micelles and determining formed radio-active triacylglycerol coming in close proximity of a flashplate surface by radio luminescence.
Said assay is described in full detail in WO2006/067071, the content of which is incorporated herein by reference.
By DGAT1 activity is meant the transfer of coenzyme A activated fatty acids to the 3-position of 1,2-diacylglycerols, thus forming a triglyceride molecule, by enzyme DGAT1.
human DGAT1 (NM012079.2) was cloned into the pFastBac vector, containing translation start, a FLAG-tag at the N-terminus as described in literature and a viral Kozak sequence (AAX) preceding the ATG to improve expression in insect cells. Expression was done as described in literature (Cases, S., Smith, S. J., Zheng, Y., Myers H. M., Lear, S. R., Sande, E., Novak, S., Collins, C., Welch, C. B., Lusis, A. J., Erickson, S. K. and Farese, R. V. (1998) Proc. Natl. Acad. Sci. USA 95, 13018-13023.) using SF9 cells.
72 h transfected SF9 cells were collected by centrifugation (13000 rpm-15 min-4° C.) and lysed in 2×500 ml lysisbuffer (0.1M Sucrose, 50 mM KCl, 40 mM KH2PO4, 30 mM EDTA pH 7.2. Cells were homogenized by cell disruptor. After centrifugation 1380 rpm-15 min-4° C. (SN discarded), pellet was resuspended in 500 ml lysisbuffer and total cell membranes collected by ultracentrifugation at 34000 rpm(100 000 g) for 60 min (4° C.). The collected membranes were resuspended in lysis buffer, divided in aliquots and stored with 10% glycerol at −80° C. until use.
Add 1 ml dioleoyl-sn-glycerol (10 mg/ml) to 10 ml of L-α-phosphatidylcholine (1 mg/ml) and 10 ml of L-α-phosphatidyl-L-serine (1 mg/ml) in a thick glass recipient. Evaporate under nitrogen and put on ice for 15 minutes. Reconstitute in 10 ml Tris/HCl (10 mM, pH 7.4) by sonication on ice. The sonification process consists of sonification cycles of 10 seconds in the sonification bath followed by 10 seconds cool down on ice and repeating this sonification cycle till a homogeneous solution is obtained (takes about 15 minutes). The thus obtained micelles are stored at −20° C. till later use and contain DAG at a final concentration of 1.61 mM.
c) Substrate mix (for 1 384 well plate=3840 μl) • 612 μl micelles stock (51 μM final) • 16.6 μl oleoylCoA 9.7 mM • 23 μl [^3H]-oleoylCoA (49 Ci/mmol, 500 μCi/ml) • 3188.4 μl Tris pH 7.4, 10 mM
d) Enzyme mix (for 1 384 well plate=3520 μl) (5 μg/ml) • Add 11.73 μl of DGAT membrane stock (1500 μg/ml stock) to 3508 μl assay buffer.
e) Stop mix (for 1 384 well plate=7.68 ml) (250 mM) • Add 384 μl of N-ethylmaleimide (5M) to 3.456 ml DMSO 100%, and further dilute 3.84 ml of said solution with 3.84 ml DMSO 10%.
DGAT activity in membrane preparations was assayed in 50 mM Tris-HCl (pH 7.4), 150 mM MgCl2, 1 mM EDTA and 0.2% BSA, containing 50 μM DAG, 32 μg/ml PC/PS and 8.4 μM [^3H]-oleoylCoA (at a specific activity of 30 nCi/well) in a final volume of 50 μl in 384-well format using the red shifted Basic Image FlashPlate™ (Perkin Elmer Cat.No. SMP400).
In detail, 10 μl enzyme mix and 10 μl substrate mix were added to 30 μl of assay buffer, optionally in the presence of 1 μl DMSO (blank and controls) or 1 μl of the compound to be tested. This reaction mixture was incubated for 120 minutes at 37° C. and the enzymatic reaction stopped by adding 20 μl of the stop mix. The plates were sealed and the vesicles allowed to settle overnight at room temperature. Plates were centrifuged for 5 minutes at 1500 rpm and measured in Leadseeker. […]

| Compound | IC50 [nM] |
| --- | --- |
| CC(C)(C)OC(=O)NCCC(=O)Nc1ccc(C2CCN(C(=O)Nc3c(Cl)cccc3Cl)CC2)cc1 [Compound 214] | 97.7 |
| CC(C)C(CC(=O)Nc1ccc(C2CCN(C(=O)Nc3c(Cl)cccc3Cl)CC2)cc1)NC(=O)OC(C)(C)C (centres unmarked) [Compound 215] | 58.9 |
| CC(C)(C)OC(=O)NC1(C(=O)Nc2ccc(C3CCN(C(=O)Nc4c(Cl)cccc4Cl)CC3)cc2)CCCC1 [Compound 216] | 34.7 |
| C#CCC(NC(=O)OC(C)(C)C)C(=O)Nc1ccc(C2CCN(C(=O)Nc3c(Cl)cccc3Cl)CC2)cc1 (centres unmarked) [Compound 220] | 19.1 |
| O=C(NCc1ccc2c(c1)OCO2)c1ccc(N2CCN(C(=O)Cc3c(Cl)cccc3Cl)CC2)cc1 [Compound 235] | 53.7 |
| O=C(NCC12CC3CC(CC(C3)C1)C2)c1ccc(N2CCN(C(=O)Nc3c(Cl)cc(CN4CCCC4)cc3Cl)CC2)cc1 [Compound 243] | 129 |
| COc1ccc(CNC(=O)c2ccc(N3CCN(C(=O)Nc4c(Cl)cncc4Cl)CC3)cc2)cc1 [Compound 245] | 145 |
| O=C(NCc1cccc(F)c1)c1ccc(N2CCN(C(=O)Cc3c(Cl)cccc3Cl)CC2)cc1 [Compound 247] | 155 |
| O=C(NCc1ccccc1F)c1ccc(N2CCN(C(=O)Cc3c(Cl)cccc3Cl)CC2)cc1 [Compound 249] | 162 |
| CC(NC(=O)c1ccc(N2CCN(C(=O)Cc3c(Cl)cccc3Cl)CC2)cc1)c1ccc(F)cc1 (centres unmarked) [Compound 250] | 174 |
| O=C(NCc1cc(F)cc(F)c1)c1ccc(N2CCN(C(=O)Cc3c(Cl)cccc3Cl)CC2)cc1 [Compound 252] | 234 |
| O=C(NCc1cccc(N2CCCC2)c1)c1ccc(N2CCN(C(=O)Cc3c(Cl)cc(CN4CCCC4)cc3Cl)CC2)cc1 [Compound 267] | 107 |
| COc1ccc(CC(=O)Nc2ccc([N+]3([O-])CCN(C(=O)Nc4c(Cl)cc(C[N+]5([O-])CCCC5)cc4Cl)CC3)cc2)cc1 [Compound 300] | 20 |
| O=C(CCC(=O)OCc1ccccc1)Nc1ccc(N2CCN(C(=O)Nc3c(Cl)cccc3Cl)CC2)cc1 [Compound 302] | 20.9 |
| O=C(CCCc1ccccc1)Nc1ccc(N2CCN(C(=O)Nc3c(Cl)cc(C(=O)NCc4ccncc4)cc3Cl)CC2)cc1 [Compound 303] | 21.4 |
| COCCNC(=O)c1cc(Cl)c(NC(=O)N2CCN(c3ccc(NC(=O)CCCc4ccccc4)cc3)CC2)c(Cl)c1 [Compound 306] | 26.3 |
| COc1ccc(CC(=O)Nc2ccc(N3CCN(C(=O)Oc4c(Cl)cccc4Cl)CC3)cc2)cc1 [Compound 308] | 31.6 |
| O=C(CCCc1ccccc1)Nc1ccc(N2CCN(C(=O)C(O)c3ccc(F)cc3Cl)CC2)cc1 (centres unmarked) [Compound 309] | 35.5 |
| O=C(CCCc1ccccc1)Nc1ccc(N2CCN(C(=O)Nc3c(Cl)cc(C(=O)NCCN4CCOCC4)cc3Cl)CC2)cc1 [Compound 310] | 37.2 |
| CC(=O)NCCNC(=O)c1cc(Cl)c(NC(=O)N2CCN(c3ccc(NC(=O)CCCc4ccccc4)cc3)CC2)c(Cl)c1 [Compound 314] | 51.3 |
| O=C(CCCc1ccccc1)Nc1ccc(N2CCN(C(=O)C(O)c3c(Cl)cccc3Cl)CC2)cc1 (centres unmarked) [Compound 315] | 58.9 |
| CN(C)CCNC(=O)c1cc(Cl)c(NC(=O)N2CCN(c3ccc(NC(=O)CCCc4ccccc4)cc3)CC2)c(Cl)c1 [Compound 321] | 91.2 |
| O=C(CCCc1ccccc1)Nc1ccc(N2CCN(C(=O)C(O)c3ccc(F)cc3F)CC2)cc1 (centres unmarked) [Compound 325] | 115 |
| O=C(CCCc1ccccc1)Nc1ccc(N2CCN(C(=O)Nc3c(Cl)cccc3Cl)CC2)c(CO)c1 [Compound 326] | 126 |
| O=C(CCCc1ccccc1)Nc1ccc(N2CCN(C(=O)C(O)c3cccc(F)c3F)CC2)cc1 (centres unmarked) [Compound 327] | 129 |
| O=C(CCCc1ccccc1)Nc1ccc(N2CCN(C(=O)C(O)c3c(F)cccc3F)CC2)cc1 (centres unmarked) [Compound 330] | 200 |
| CCC(C(=O)Nc1ccc(N2CCN(C(=O)Cc3ccccc3C)CC2)cc1)c1ccccc1 (centres unmarked) [Compound 336] | 692 |
| COc1ccc(CC(=O)Nc2ccc(N3CCN(C(=O)C(N)c4ccccc4Cl)CC3)cc2)cc1 (centres unmarked) [Compound 337] | 2450 |
| O=C(CCCc1ccccc1)Nc1ccc(N2CCN(C(=O)C(O)c3cccc(O)c3)CC2)cc1 (centres unmarked) [Compound 340] | 3550 |

The next compounds have a lower IC50 than those just listed; values first:

| IC50 [nM] | Compound |
| --- | --- |
| 15.1 | CCOC(=O)CCCC(=O)Nc1ccc(N2CCN(C(=O)Nc3c(Cl)cccc3Cl)CC2)cc1 [Compound 297] |
| 14.8 | CN(C)C(=O)CN(C)C(=O)c1cc(Cl)c(NC(=O)N2CCN(c3ccc(NC(=O)CCCc4ccccc4)cc3)CC2)c(Cl)c1 [Compound 296] |
| 13.8 | O=C(CCCc1ccccc1)Nc1ccc(N2CCN(C(=O)C(O)c3ccccc3Br)CC2)cc1 (centres unmarked) [Compound 295] |
| 12.3 | O=C(CCCc1ccccc1)Nc1ccc(N2CCN(C(=O)Nc3c(Cl)cc(C(=O)N4CCOCC4)cc3Cl)CC2)cc1 [Compound 294] |
| 11.7 | O=C(NCc1cccc(N2CCCC2)c1)c1ccc(N2CCN(C(=O)Nc3c(Cl)cc(CCN4CCCC4)cc3Cl)CC2)cc1 [Compound 227] |
| 10.5 | CN1CCN(C(=O)c2cc(Cl)c(NC(=O)N3CCN(c4ccc(NC(=O)CCCc5ccccc5)cc4)CC3)c(Cl)c2)CC1 [Compound 290] |
| 10.5 | COCCN(C)C(=O)c1cc(Cl)c(NC(=O)N2CCN(c3ccc(NC(=O)CCCc4ccccc4)cc3)CC2)c(Cl)c1 [Compound 291] |
| 8.32 | O=C(NCc1cccc(N2CCCC2)c1)c1ccc(N2CCN(C(=O)Nc3c(Cl)cc(CN4CCCC4)cc3Cl)CC2)cc1 [Compound 224] |
| 8.13 | CN(C)C(=O)c1cc(Cl)c(NC(=O)N2CCN(c3ccc(NC(=O)CCCc4ccccc4)cc3)CC2)c(Cl)c1 [Compound 284] |
| 7.76 | CC(C)(C)OC(=O)CC(=O)Nc1ccc(N2CCN(C(=O)Nc3c(Cl)cccc3Cl)CC2)cc1 [Compound 282] |
| 6.76 | CC(C)(C)OC(=O)CCC(=O)Nc1ccc(N2CCN(C(=O)Nc3c(Cl)cccc3Cl)CC2)cc1 [Compound 279] |
| 4.57 | O=C(CC(=O)OCc1ccccc1)Nc1ccc(N2CCN(C(=O)Nc3c(Cl)cccc3Cl)CC2)cc1 [Compound 277] |
| 4.17 | COCCN1CCN(C(=O)c2cc(Cl)c(NC(=O)N3CCN(c4ccc(NC(=O)CCCc5ccccc5)cc4)CC3)c(Cl)c2)CC1 [Compound 275] |
| 3.98 | COCCNC(C)c1cc(Cl)c(NC(=O)N2CCN(c3ccc(NC(=O)CCCc4ccccc4)cc3)CC2)c(Cl)c1 (centres unmarked) [Compound 274] |
| 2.04 | O=C(CCCc1ccccc1)Nc1ccc(N2CCN(C(=O)Nc3c(Cl)cc(CN4CCOCC4)cc3Cl)CC2)cc1 [Compound 269] |
